The numbers were not newly measured in patent publication US11225464B2, “Compositions and methods for the treatment of gastrointestinal polyps” (CELLIX BIO PRIVATE LIMITED, priority 2016, dated 2022), which cites them from elsewhere.

The conditions of data set [1]: long-term users.
For another data set, the system named is colorectal adenomas. As to conditions: FAP patients; long-term use; colon as well as rectum of patients after colectomy.
For the next data set, the system named is duodenal adenomas. The conditions noted are these: FAP patients.

Structures are written as SMILES. A value given as a limit tells only on which side of the number the result lay.

Regarding `CS(=O)(=O)c1ccc(C2=C(c3ccccc3)C(=O)OC2)cc1` [rofecoxib], in data set [1], the cardiovascular effects entry was “cardiovascular effects (myocardial infarction or stroke) have been described”. For `CC1=C(CC(=O)O)c2cc(F)ccc2/C1=C\c1ccc([S+](C)[O-])cc1` (stereo not drawn) [sulindac], the “reduction of the number of colorectal adenomas” value in the data set on colorectal adenomas is recorded as over 50%. In the data set on duodenal adenomas, the “effect on duodenal polyposis / number of duodenal adenomas” value is given as “not in duodenal polyposis”.
